Target: T1, SNX1 (SORTING NEXIN1; AtSNX1) (Arabidopsis thaliana, UniProt Q9FG38)
T1 construct: full-length cDNA in pET51b, His-tagged (tag kept), E. coli Rosetta (DE3), Ni-NTA purified
T1 sequence (Q9FG38 1-402): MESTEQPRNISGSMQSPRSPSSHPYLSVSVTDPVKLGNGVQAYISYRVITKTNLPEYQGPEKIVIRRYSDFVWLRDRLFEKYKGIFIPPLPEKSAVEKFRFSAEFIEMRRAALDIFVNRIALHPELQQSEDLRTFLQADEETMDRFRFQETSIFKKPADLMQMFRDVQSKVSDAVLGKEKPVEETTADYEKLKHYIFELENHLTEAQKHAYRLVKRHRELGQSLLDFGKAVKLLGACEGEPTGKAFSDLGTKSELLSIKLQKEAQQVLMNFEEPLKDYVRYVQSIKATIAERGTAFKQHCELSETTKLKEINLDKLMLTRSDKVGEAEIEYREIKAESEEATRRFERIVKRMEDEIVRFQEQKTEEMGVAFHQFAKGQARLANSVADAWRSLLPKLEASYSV
Test: liposome co-sedimentation, immunoblot
Format: binding
Conditions: dioleoyl PC/dioleoyl PA liposomes, pH 7.5, 25 °C; PA (acyl chains not told) also tested by lipid-protein overlay

CCCCCCCC/C=C\CCCCCCCC(=O)OC[C@H](COP(=O)(O)O)OC(=O)CCCCCCC/C=C\CCCCCCCC [dioleoyl PA]
liposome co-sedimentation, immunoblot: results confirmed the specific SNX1‐PA binding (Fig. 4b)

Source: article PMC7065129, “Phospholipase D‐derived phosphatidic acid promotes root hair development under phosphorus deficiency by suppressing vacuolar degradation of PIN‐FORMED2” (The New Phytologist, 2019)
